The data set concerns chondrocytes. As to the kind of experiment: Viability of chondrocytes after exposure (MTT and LDH assays). In kind it is cell-based, bovine. The conditions noted are these: 15 μl of DEX 4 mg/ml solution per 1 ml well, up to 3 days. As for the experimental part: The cartilage samples as described in Example 4 underwent a 1 hour predigestion stage with 0.4% w/v pronase (Sigma, UK), dissolved in 4-(2-hydroxyethyl)-1-piperazineethanesulfonic acid (HEPES)-buffered DMEM (Gibco, UK) supplemented with 50 U/50 mg/mL penicillin-streptomycin (Sigma Aldrich) and 2.5 mg/mL amphotericin B. Cartilages samples were placed in sterile eppendorfs containing the filter-sterilized enzyme solution by passage through a […] filter at a concentration of 1 ml solution for 5 cartilage extracts. The samples were incubated at 37° C. and the cartilage fragments were then washed twice with sterile PBS and digested with 1 ml each 6 cartilage sample of collagenase II (Sigma, UK) 0.1% w/v for 16 h at 37° C. Collagenase II was prepared in 4-(2-hydroxyethyl)-1-piperazineethanesulfonic acid (HEPES)-buffered DMEM (Gibco, UK) supplemented with 50 U/50 mg/mL penicillin-streptomycin (Sigma Aldrich and filter sterilised. […]
Chondrocytes viability was assessed through MTT and LDH assay kits (Sigma, UK) according to manufacturer's protocols. […]
On the technique in general: Tetrazolium dyes change colour on reduction, which living cells bring about.

Take `C[C@@H]1C[C@H]2[C@@H]3CCC4=CC(=O)C=C[C@]4(C)[C@@]3(F)[C@@H](O)C[C@]2(C)[C@@]1(O)C(=O)COP(=O)(O)O` [DEX-P, dexamethasone phosphate]: the “chondrocytes viability (MTT and LDH)” value was “same viability”.

These data come from patent US20170209468A1, “POLY(BETA-AMINO ESTER) CONJUGATES FOR CARTILAGE AGENT DELIVERY AND METHODS” (University College Cardiff Consultants Limited, priority 2014, published 2017).
